Assays:
[1] = Effect on random weight of ob/ob mice after single subcutaneous injection; format: in vivo; settings: 100 μg/kg single s.c., X ± s, n = 7
Method: The mice in each group received random blood glucose value measurement before (0 h) administration and 2, 4, 6, 10 and 24 h after administration, and then the time for measuring the random blood glucose was adjusted and prolonged to 34, 48, 58 or 72 h after administration according to the blood glucose condition of the mice in each group. Meanwhile, the random weight of the mice in each group before (0 h) administration and 24 h after administration was weighed, and then the random weight of the mice corresponding to the random blood glucose measurement condition 48 or 72 h after administration was weighed.

ob/ob mice = test: Blood glucose reducing experiment, single subcutaneous injection in ob/ob mice; format: in vivo; settings: 100 μg/kg single s.c.; for Blood glucose at different time after administration, 0 h: 0 h (before administration); for Blood glucose at different time after administration, 0 h / Blood glucose at different time after administration, 2 h / Blood glucose at different time after administration, 4 h / Blood glucose at different time after administration, 6 h / Blood glucose at different time after administration, 10 h / Blood glucose at different time after administration, 24 h / AUC0-24 h Glu / Blood glucose at different time after administration, 34 h: X ± s, n = 7; for AUC0-24 h Glu: blood glucose curve area within 24 h; for AUC0-24 h Glu Decrease rate: versus model control group;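 on all read-outs here: random blood glucose read at each time point, decrease rate given as percentage fall versus the model control group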

Compound	Changes of random body weight at different time after administration, 0 h [1] [g]	Random body weight at different time after administration, 0 h [1] [g]	Changes of random body weight at different time after administration, 24 h [1] [g]	Random body weight at different time after administration, 24 h [1] [g]	Blood glucose at different time after administration, 0 h (ob/ob mice) [mmol/L]	Decrease rate of blood glucose at different time after administration, 2 h (ob/ob mice) [%]	Blood glucose at different time after administration, 2 h (ob/ob mice) [mmol/L]	Decrease rate of blood glucose at different time after administration, 4 h (ob/ob mice) [%]	Blood glucose at different time after administration, 4 h (ob/ob mice) [mmol/L]	Decrease rate of blood glucose at different time after administration, 6 h (ob/ob mice) [%]	Blood glucose at different time after administration, 6 h (ob/ob mice) [mmol/L]	Decrease rate of blood glucose at different time after administration, 10 h (ob/ob mice) [%]	Blood glucose at different time after administration, 10 h (ob/ob mice) [mmol/L]	Decrease rate of blood glucose at different time after administration, 24 h (ob/ob mice) [%]	Blood glucose at different time after administration, 24 h (ob/ob mice) [mmol/L]	AUC0-24 h Glu (ob/ob mice) [mmol·h/L]	AUC0-24 h Glu Decrease rate (ob/ob mice) [%]	Changes of random body weight at different time after administration, 48 h [1] [g]	Random body weight at different time after administration, 48 h [1] [g]	Decrease rate of blood glucose at different time after administration, 34 h (ob/ob mice) [%]	other results
CC[C@H](C)[C@H](NC(=O)[C@H](CO)NC(=O)[C@H](Cc1ccc(O)cc1)NC(=O)[C@H](CC(=O)O)NC(=O)[C@H](CO)NC(=O)[C@@H](NC(=O)[C@H](Cc1ccccc1)NC(=O)[C@@H](NC(=O)CNC(=O)[C@H](CCC(=O)O)NC(=O)[C@H](C)NC(=O)[C@@H](N)Cc1ccc(O)cc1)[C@@H](C)O)[C@@H](C)CC)C(=O)N[C@@H](C)C(=O)N[C@@H](CCSC)C(=O)N[C@@H](CC(=O)O)C(=O)N[C@@H](CCCCN)C(=O)N[C@H](C(=O)N[C@@H](Cc1c[nH]cn1)C(=O)N[C@@H](CCC(N)=O)C(=O)N[C@@H](CCC(N)=O)C(=O)N[C@@H](CC(=O)O)C(=O)N[C@@H](Cc1ccccc1)C(=O)N[C@H](C(=O)N[C@@H](CC(N)=O)C(=O)N[C@@H](Cc1c[nH]c2ccccc12)C(=O)N[C@@H](CC(C)C)C(=O)N[C@@H](CC(C)C)C(=O)N[C@@H](C)C(=O)N[C@@H](CCC(N)=O)C(=O)N[C@@H](CCCCN)C(=O)NCC(=O)N[C@@H](CCCCN)C(=O)N[C@@H](CCCCN)C(=O)N[C@@H](CC(N)=O)C(=O)N[C@@H](CC(=O)O)C(=O)N[C@@H](Cc1c[nH]c2ccccc12)C(=O)N[C@@H](CCCCN)C(=O)N[C@@H](Cc1c[nH]cn1)C(=O)N[C@@H](CC(N)=O)C(=O)N[C@H](C(=O)N[C@H](C(=O)N[C@@H](CCC(N)=O)C(=O)O)[C@@H](C)O)[C@@H](C)CC)C(C)C)[C@@H](C)CC [GIP, Glucose-dependent inotropic peptide, reference compound]	0.0 ± 0.0	43.5 ± 0.8	0.1 ± 0.1	43.6 ± 0.8	20.36 ± 0.74	38.0	12.63 ± 1.70	38.8	12.46 ± 1.66	32.7	13.71 ± 0.86	30.5	14.16 ± 1.24	12.4	17.84 ± 0.87	363.99 ± 14.21	28.7				
CC[C@H](C)[C@H](NC(=O)[C@H](Cc1ccccc1)NC(=O)[C@H](CCC(=O)O)NC(=O)[C@H](CCCCN)NC(=O)[C@H](C)NC(=O)[C@H](C)NC(=O)[C@H](CCC(N)=O)NC(=O)CNC(=O)[C@H](CCC(=O)O)NC(=O)[C@H](CC(C)C)NC(=O)[C@H](Cc1ccc(O)cc1)NC(=O)[C@H](CO)NC(=O)[C@H](CO)NC(=O)[C@@H](NC(=O)[C@H](CC(=O)O)NC(=O)[C@H](CO)NC(=O)[C@@H](NC(=O)[C@H](Cc1ccccc1)NC(=O)[C@@H](NC(=O)CNC(=O)[C@H](CCC(=O)O)NC(=O)[C@H](C)NC(=O)[C@@H](N)Cc1c[nH]cn1)[C@@H](C)O)[C@@H](C)O)C(C)C)C(=O)N[C@@H](C)C(=O)N[C@@H](Cc1c[nH]c2ccccc12)C(=O)N[C@@H](CC(C)C)C(=O)N[C@H](C(=O)N[C@@H](CCCCN)C(=O)NCC(=O)N[C@@H](CCCNC(=N)N)C(N)=O)C(C)C [GLP-1, glucagon-like peptide-1, reference compound]	0.0 ± 0.0	43.2 ± 0.7	-0.1 ± 0.1	43.1 ± 0.7	20.30 ± 1.05	40.6	12.06 ± 1.36	41.9	11.79 ± 0.84	35.9	13.02 ± 0.86	30.9	14.03 ± 2.41	11.1	18.04 ± 0.71	359.61 ± 18.59	29.6				
CC[C@H](C)[C@H](NC(=O)[C@H](CC(C)C)NC(=O)[C@H](Cc1c[nH]c2ccccc12)NC(=O)[C@H](CCC(N)=O)NC(=O)[C@@H](NC(=O)[C@H](Cc1ccccc1)NC(=O)[C@H](C)NC(=O)[C@H](CCCCNC(=O)COCCOCCNC(=O)COCCOCCNC(=O)CC[C@H](NC(=O)CCCCCCCCCCCCCCCCC(=O)O)C(=O)O)NC(=O)[C@H](CCC(N)=O)NC(=O)[C@H](C)NC(=O)[C@@H](NC(=O)[C@H](CCCCN)NC(=O)[C@H](CC(=O)O)NC(=O)[C@H](CC(C)C)NC(=O)C1(NC(=O)[C@@H](NC(=O)[C@H](CO)NC(=O)[C@H](Cc2ccc(O)cc2)NC(=O)[C@H](CC(=O)O)NC(=O)[C@H](CO)NC(=O)[C@@H](NC(=O)[C@H](Cc2ccccc2)NC(=O)[C@@H](NC(=O)CNC(=O)[C@H](CCC(=O)O)NC(=O)C(C)(C)NC(=O)[C@@H](N)Cc2ccc(O)cc2)[C@@H](C)O)[C@@H](C)O)[C@@H](C)CC)CCC1)[C@@H](C)CC)C(C)C)C(=O)N[C@@H](C)C(=O)NCC(=O)NCC(=O)N1CCC[C@H]1C(=O)N[C@@H](CO)C(=O)N[C@@H](CO)C(=O)NCC(=O)N[C@@H](C)C(=O)N1CCC[C@H]1C(=O)N1CCC[C@H]1C(=O)N1CCC[C@H]1C(=O)N[C@@H](CO)C(N)=O [ID NO: 8]	0.0 ± 0.0	43.8 ± 0.7	-1.1 ± 0.2	42.7 ± 0.7	20.36 ± 0.87	48.1	10.56 ± 0.99	50.9	9.99 ± 0.86	51.7	9.83 ± 0.85	53.1	9.54 ± 1.12	41.3	11.95 ± 1.26	260.46 ± 21.31	49.0	-0.6 ± 0.1	43.2 ± 0.7	29.6	Blood glucose at different time after administration, 34 h (ob/ob mice): 14.33 ± 1.43 mmol/L; Decrease rate of blood glucose at different time after administration, 48 h (ob/ob mice): 15.7%
Semaglutide [reference compound]	0.0 ± 0.0	43.7 ± 1.0	-2.9 ± 0.2	40.7 ± 1.0	20.71 ± 1.14	56.0	9.12 ± 0.84	56.7	8.96 ± 1.40	59.8	8.32 ± 0.88	60.0	8.29 ± 0.86	59.0	8.49 ± 1.12	215.87 ± 18.67	57.7	-1.9 ± 0.2	41.7 ± 1.0	56.0	Blood glucose at different time after administration, 34 h (ob/ob mice): 9.12 ± 0.83 mmol/L; Decrease rate of blood glucose at different time after administration, 48 h (ob/ob mice): 13.9%

Reference: patent publication US20220251163A1 (Sinopep-Allsino Biopharmaceutical Co., Ltd., priority 2019, published 2022)
